Tests used:
[1] = molecular target: T1, RSK3(Kin.Dom.1-N-terminal) (Homo sapiens, UniProt Q15349); experiment: KINOMEscan 1 μM, RSK3(Kin.Dom.1-N-terminal); format: binding; conditions: 1000 nM; Entrez RPS6KA2; read-out: Percent Control
T1 construct: RSK3(Kin.Dom.1-N-terminal); purchased Eurofins DiscoverX KINOMEscan
Excerpt: (§1) Supplement cells-12-00287-s001.zip/File S2. KinomeScan data for the CAMKK2 probe and negative control.xlsx, sheet "SGC-CAMKK2-1" | column: Percent Control

MAST1 = molecular target: T2, MAST1 (Homo sapiens, UniProt Q9Y2H9); experiment: KINOMEscan 1 μM, MAST1; format: binding; conditions: 1000 nM; Entrez MAST1; read-out: Percent Control
T2 construct: purchased Eurofins DiscoverX KINOMEscan
Excerpt: as §1

PIK3CB [2] = molecular target: T3, PIK3CB (Homo sapiens, UniProt P42338); experiment: DiscoverX KINOMEscan binding assay at 1 μM, PIK3CB; conditions: Compound Concentration 1000 nM, read-out: Percent Control
T3 construct: purchased Eurofins DiscoverX KINOMEscan
T3 sequence (P42338 whole entry): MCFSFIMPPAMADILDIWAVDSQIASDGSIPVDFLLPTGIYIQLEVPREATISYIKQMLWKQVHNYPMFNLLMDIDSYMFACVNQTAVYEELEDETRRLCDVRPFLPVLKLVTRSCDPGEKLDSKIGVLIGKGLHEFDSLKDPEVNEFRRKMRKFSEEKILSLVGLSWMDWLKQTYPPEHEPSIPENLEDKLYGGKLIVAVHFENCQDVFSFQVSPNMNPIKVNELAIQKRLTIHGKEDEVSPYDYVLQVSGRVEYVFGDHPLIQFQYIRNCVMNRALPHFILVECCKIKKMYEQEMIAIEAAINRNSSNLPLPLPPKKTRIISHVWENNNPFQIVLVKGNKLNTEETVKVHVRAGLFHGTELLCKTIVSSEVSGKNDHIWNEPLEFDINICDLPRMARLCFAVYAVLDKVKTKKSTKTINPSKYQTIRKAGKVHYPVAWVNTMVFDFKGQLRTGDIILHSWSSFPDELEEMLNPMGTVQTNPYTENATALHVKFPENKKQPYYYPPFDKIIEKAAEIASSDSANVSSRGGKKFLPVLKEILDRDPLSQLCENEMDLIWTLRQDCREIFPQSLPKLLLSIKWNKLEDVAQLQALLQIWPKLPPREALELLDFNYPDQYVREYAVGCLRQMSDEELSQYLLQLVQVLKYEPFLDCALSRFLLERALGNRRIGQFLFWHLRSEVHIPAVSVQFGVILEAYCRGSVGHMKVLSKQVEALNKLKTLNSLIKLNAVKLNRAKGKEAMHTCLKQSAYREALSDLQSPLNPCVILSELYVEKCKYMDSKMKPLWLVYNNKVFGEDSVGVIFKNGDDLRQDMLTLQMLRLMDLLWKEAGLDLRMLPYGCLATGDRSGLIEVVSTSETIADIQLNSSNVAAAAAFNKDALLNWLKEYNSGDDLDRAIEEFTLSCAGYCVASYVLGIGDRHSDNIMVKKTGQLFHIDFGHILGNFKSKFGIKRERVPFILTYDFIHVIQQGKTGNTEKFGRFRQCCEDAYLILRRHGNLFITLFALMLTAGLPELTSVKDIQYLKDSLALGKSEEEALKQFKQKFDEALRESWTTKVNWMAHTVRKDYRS
Excerpt: as §1

CSNK1G3 = molecular target: T4, CSNK1G3 (Homo sapiens, UniProt Q9Y6M4); experiment: KINOMEscan 1 μM, CSNK1G3; format: binding; conditions: 1000 nM; Entrez CSNK1G3; read-out: Percent Control
T4 construct: purchased Eurofins DiscoverX KINOMEscan
Excerpt: as §1

SNRK = molecular target: T5, SNRK (Homo sapiens, UniProt Q9NRH2); experiment: KINOMEscan 1 μM, SNRK; format: binding; conditions: 1000 nM; Entrez SNRK; read-out: Percent Control
T5 construct: purchased Eurofins DiscoverX KINOMEscan
Excerpt: as §1

PKNB(M.tuberculosis) = molecular target: T6, PKNB(M.tuberculosis) (Mycobacterium tuberculosis, UniProt P9WI81); experiment: KINOMEscan 1 μM, PKNB(M.tuberculosis); format: binding; conditions: 1000 nM; Entrez pknB; read-out: Percent Control
T6 construct: purchased Eurofins DiscoverX KINOMEscan
Excerpt: as §1

[3] = molecular target: T7, ABL1(Q252H)-nonphosphorylated (Homo sapiens, UniProt P00519, Q252H); experiment: KINOMEscan 1 μM, ABL1(Q252H)-nonphosphorylated; format: binding; conditions: 1000 nM; Entrez ABL1; read-out: Percent Control
T7 construct: purchased Eurofins DiscoverX KINOMEscan
Excerpt: as §1

NEK3 = molecular target: T8, NEK3 (Homo sapiens, UniProt P51956); experiment: KINOMEscan 1 μM, NEK3; format: binding; conditions: 1000 nM; Entrez NEK3; read-out: Percent Control
T8 construct: purchased Eurofins DiscoverX KINOMEscan
Excerpt: as §1

CSNK1G2 = molecular target: T9, CSNK1G2 (Homo sapiens, UniProt P78368); experiment: KINOMEscan 1 μM, CSNK1G2; format: binding; conditions: 1000 nM; Entrez CSNK1G2; read-out: Percent Control
T9 construct: purchased Eurofins DiscoverX KINOMEscan
Excerpt: as §1

EPHA3 = molecular target: T10, EPHA3 (Homo sapiens, UniProt P29320); experiment: KINOMEscan 1 μM, EPHA3; format: binding; conditions: 1000 nM; Entrez EPHA3; read-out: Percent Control
T10 construct: purchased Eurofins DiscoverX KINOMEscan
Excerpt: as §1

[4] = molecular target: T11, ABL1(T315I)-nonphosphorylated (Homo sapiens, UniProt P00519, T315I); experiment: KINOMEscan 1 μM, ABL1(T315I)-nonphosphorylated; format: binding; conditions: 1000 nM; Entrez ABL1; read-out: Percent Control
T11 construct: purchased Eurofins DiscoverX KINOMEscan
Excerpt: as §1

EGFR [5] = molecular target: T12, EGFR (Homo sapiens, UniProt P00533); experiment: KINOMEscan 1 μM, EGFR; format: binding; conditions: 1000 nM; Entrez EGFR; read-out: Percent Control
T12 construct: purchased Eurofins DiscoverX KINOMEscan
T12 sequence (P00533 25-1210): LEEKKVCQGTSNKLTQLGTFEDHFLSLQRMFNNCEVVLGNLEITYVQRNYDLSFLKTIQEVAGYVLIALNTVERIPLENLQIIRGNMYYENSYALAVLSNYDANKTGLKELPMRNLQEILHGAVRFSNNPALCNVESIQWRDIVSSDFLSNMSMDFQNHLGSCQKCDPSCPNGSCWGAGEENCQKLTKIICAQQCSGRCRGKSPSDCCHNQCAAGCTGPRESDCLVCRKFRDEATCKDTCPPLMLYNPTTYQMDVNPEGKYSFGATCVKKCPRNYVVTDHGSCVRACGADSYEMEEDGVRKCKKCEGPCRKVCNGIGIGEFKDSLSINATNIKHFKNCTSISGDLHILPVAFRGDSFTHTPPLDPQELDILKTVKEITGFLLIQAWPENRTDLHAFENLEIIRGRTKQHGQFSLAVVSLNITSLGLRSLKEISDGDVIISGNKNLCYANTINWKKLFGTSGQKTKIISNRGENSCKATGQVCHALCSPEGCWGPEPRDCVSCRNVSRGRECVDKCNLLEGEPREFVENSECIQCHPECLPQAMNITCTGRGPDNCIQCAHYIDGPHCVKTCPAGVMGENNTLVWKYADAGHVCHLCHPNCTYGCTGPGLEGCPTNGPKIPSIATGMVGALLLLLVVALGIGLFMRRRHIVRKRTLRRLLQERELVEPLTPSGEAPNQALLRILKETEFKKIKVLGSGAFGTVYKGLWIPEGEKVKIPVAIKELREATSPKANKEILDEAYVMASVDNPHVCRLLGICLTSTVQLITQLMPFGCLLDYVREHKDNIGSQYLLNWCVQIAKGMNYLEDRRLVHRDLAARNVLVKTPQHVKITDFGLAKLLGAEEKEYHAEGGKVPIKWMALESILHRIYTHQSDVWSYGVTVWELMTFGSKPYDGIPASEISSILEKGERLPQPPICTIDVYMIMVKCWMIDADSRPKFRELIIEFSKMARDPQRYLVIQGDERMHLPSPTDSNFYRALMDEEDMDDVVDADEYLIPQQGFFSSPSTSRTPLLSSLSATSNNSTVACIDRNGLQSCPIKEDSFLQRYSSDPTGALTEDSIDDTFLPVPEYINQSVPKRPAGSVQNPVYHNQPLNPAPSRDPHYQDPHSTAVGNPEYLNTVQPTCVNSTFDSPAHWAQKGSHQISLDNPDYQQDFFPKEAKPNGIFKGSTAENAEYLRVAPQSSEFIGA
Excerpt: as §1

SIK2 = molecular target: T13, SIK2 (Homo sapiens, UniProt Q9H0K1); experiment: KINOMEscan 1 μM, SIK2; format: binding; conditions: 1000 nM; Entrez SIK2; read-out: Percent Control
T13 construct: purchased Eurofins DiscoverX KINOMEscan
Excerpt: as §1

NEK11 = molecular target: T14, NEK11 (Homo sapiens, UniProt Q8NG66); experiment: KINOMEscan 1 μM, NEK11; format: binding; conditions: 1000 nM; Entrez NEK11; read-out: Percent Control
T14 construct: purchased Eurofins DiscoverX KINOMEscan
T14 sequence (Q8NG66 whole entry): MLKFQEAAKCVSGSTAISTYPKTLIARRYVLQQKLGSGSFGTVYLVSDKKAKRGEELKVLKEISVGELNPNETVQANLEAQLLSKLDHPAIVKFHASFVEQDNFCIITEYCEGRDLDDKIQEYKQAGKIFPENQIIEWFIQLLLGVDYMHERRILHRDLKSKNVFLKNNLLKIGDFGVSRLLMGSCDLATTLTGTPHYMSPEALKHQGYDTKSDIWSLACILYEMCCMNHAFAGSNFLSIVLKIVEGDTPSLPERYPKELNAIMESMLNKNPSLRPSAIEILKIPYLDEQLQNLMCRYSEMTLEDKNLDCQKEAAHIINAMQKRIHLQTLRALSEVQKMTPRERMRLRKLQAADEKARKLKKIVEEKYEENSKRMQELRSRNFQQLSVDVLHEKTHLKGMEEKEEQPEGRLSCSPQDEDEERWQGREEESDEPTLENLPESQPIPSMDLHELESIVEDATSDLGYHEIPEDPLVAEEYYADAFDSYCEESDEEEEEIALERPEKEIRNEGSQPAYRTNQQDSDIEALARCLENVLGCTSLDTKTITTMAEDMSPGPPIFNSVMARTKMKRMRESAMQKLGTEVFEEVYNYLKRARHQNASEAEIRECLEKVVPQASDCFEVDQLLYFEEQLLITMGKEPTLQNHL
Excerpt: as §1

CDC2L2 = molecular target: T15, CDC2L2 (Homo sapiens, UniProt Q9UQ88); experiment: KINOMEscan at 1 μM, CDC2L2; format: binding; conditions: 1000 nM, read-out: Percent Control
T15 construct: purchased Eurofins DiscoverX KINOMEscan
Excerpt: (§2) Supplement cells-12-00287-s001.zip/File S2. KinomeScan data for the CAMKK2 probe and negative control.xlsx, sheet "SGC-CAMKK2-1N" | column: Percent Control

IRAK4 = molecular target: T16, IRAK4 (Homo sapiens, UniProt Q9NWZ3); experiment: KINOMEscan at 1 μM, IRAK4; format: binding; conditions: 1000 nM, read-out: Percent Control
T16 construct: purchased Eurofins DiscoverX KINOMEscan
Excerpt: as §2

HCK = molecular target: T17, HCK (Homo sapiens, UniProt P08631); experiment: KINOMEscan binding assay at 1 μM, HCK; conditions: Compound Concentration 1000 nM; read-out: Percent Control
T17 construct: purchased Eurofins DiscoverX KINOMEscan
Excerpt: as §2

PIK4CB = molecular target: T18, PIK4CB (Homo sapiens, UniProt Q9UBF8); experiment: KINOMEscan at 1 μM, PIK4CB; format: binding; conditions: 1000 nM, read-out: Percent Control
T18 construct: purchased Eurofins DiscoverX KINOMEscan
Excerpt: as §2

FLT4 = molecular target: T19, FLT4 (Homo sapiens, UniProt P35916); experiment: KINOMEscan at 1 μM, FLT4; format: binding; conditions: 1000 nM, read-out: Percent Control
T19 construct: purchased Eurofins DiscoverX KINOMEscan
Excerpt: as §2

PDPK1 = molecular target: T20, PDPK1 (Homo sapiens, UniProt O15530); experiment: KINOMEscan binding assay at 1 μM, PDPK1; conditions: Compound Concentration 1000 nM; read-out: Percent Control
T20 construct: purchased Eurofins DiscoverX KINOMEscan
Excerpt: as §2

LIMK2 = molecular target: T21, LIMK2 (Homo sapiens, UniProt P53671); experiment: KINOMEscan at 1 μM, LIMK2; format: binding; conditions: 1000 nM, read-out: Percent Control
T21 construct: purchased Eurofins DiscoverX KINOMEscan
T21 sequence (P53671 whole entry): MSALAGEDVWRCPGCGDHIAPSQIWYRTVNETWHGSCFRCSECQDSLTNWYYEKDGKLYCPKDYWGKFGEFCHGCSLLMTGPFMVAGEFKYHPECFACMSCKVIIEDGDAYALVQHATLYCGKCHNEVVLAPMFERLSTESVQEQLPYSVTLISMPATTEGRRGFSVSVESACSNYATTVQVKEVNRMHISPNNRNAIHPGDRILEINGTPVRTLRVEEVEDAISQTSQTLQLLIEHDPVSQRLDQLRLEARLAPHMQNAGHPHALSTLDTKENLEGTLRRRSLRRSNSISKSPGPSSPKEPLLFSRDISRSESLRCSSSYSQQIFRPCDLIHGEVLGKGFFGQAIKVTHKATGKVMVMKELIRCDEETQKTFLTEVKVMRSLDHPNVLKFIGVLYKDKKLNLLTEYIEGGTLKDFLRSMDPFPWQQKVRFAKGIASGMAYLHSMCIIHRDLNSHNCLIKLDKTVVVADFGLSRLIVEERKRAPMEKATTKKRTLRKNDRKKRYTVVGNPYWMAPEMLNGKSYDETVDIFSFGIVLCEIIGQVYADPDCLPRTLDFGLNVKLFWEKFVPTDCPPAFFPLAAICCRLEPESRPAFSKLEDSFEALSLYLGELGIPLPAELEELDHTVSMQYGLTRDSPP
Excerpt: as §2

ERN1 = molecular target: T22, ERN1 (Homo sapiens, UniProt O75460); experiment: KINOMEscan at 1 μM, ERN1; format: binding; conditions: 1000 nM, read-out: Percent Control
T22 construct: purchased Eurofins DiscoverX KINOMEscan
Excerpt: as §2

TESK1 = molecular target: T23, TESK1 (Homo sapiens, UniProt Q15569); experiment: KINOMEscan at 1 μM, TESK1; format: binding; conditions: 1000 nM, read-out: Percent Control
T23 construct: purchased Eurofins DiscoverX KINOMEscan
Excerpt: as §2

EPHA5 = molecular target: T24, EPHA5 (Homo sapiens, UniProt P54756); experiment: KINOMEscan binding assay at 1 μM, EPHA5; conditions: Compound Concentration 1000 nM; read-out: Percent Control
T24 construct: purchased Eurofins DiscoverX KINOMEscan
T24 sequence (P54756 25-1037): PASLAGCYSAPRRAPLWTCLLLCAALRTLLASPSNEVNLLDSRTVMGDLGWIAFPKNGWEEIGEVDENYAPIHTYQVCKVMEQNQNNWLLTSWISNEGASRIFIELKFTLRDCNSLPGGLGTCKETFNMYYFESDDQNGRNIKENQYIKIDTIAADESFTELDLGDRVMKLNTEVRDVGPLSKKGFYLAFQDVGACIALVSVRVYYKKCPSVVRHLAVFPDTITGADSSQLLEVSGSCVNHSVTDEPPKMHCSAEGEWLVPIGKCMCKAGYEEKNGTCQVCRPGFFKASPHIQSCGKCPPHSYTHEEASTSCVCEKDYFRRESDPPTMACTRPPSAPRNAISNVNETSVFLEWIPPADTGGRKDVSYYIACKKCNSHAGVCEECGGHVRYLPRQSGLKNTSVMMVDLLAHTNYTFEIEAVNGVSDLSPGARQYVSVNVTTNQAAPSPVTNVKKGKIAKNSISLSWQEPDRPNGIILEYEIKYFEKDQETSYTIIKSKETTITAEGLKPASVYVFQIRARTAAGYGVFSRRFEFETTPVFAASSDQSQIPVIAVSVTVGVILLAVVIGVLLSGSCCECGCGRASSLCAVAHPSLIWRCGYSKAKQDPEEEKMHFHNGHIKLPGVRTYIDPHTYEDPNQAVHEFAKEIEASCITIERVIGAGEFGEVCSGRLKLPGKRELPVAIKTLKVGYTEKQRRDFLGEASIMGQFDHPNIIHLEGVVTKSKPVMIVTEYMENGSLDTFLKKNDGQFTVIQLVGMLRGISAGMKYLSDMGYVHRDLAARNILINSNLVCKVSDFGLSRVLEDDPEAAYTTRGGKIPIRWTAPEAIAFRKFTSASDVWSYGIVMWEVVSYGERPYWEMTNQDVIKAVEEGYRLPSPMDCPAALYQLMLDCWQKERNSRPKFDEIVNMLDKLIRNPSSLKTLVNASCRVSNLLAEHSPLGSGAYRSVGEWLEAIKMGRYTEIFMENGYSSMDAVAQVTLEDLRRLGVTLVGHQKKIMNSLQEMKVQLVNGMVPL
Excerpt: as §2

EGFR(E746-A750del) = molecular target: T25, EGFR(E746-A750del) (Homo sapiens, UniProt P00533, DEL746-750); experiment: KINOMEscan at 1 μM, EGFR(E746-A750del); format: binding; conditions: 1000 nM, read-out: Percent Control
T25 construct: purchased Eurofins DiscoverX KINOMEscan
Excerpt: as §2

CDKL3 = molecular target: T26, CDKL3 (Homo sapiens, UniProt Q8IVW4); experiment: KINOMEscan at 1 μM, CDKL3; format: binding; conditions: 1000 nM, read-out: Percent Control
T26 construct: purchased Eurofins DiscoverX KINOMEscan
Excerpt: as §2

SIK = molecular target: T27, SIK (Homo sapiens, UniProt P57059); experiment: KINOMEscan binding assay at 1 μM, SIK; conditions: Compound Concentration 1000 nM; read-out: Percent Control
T27 construct: purchased Eurofins DiscoverX KINOMEscan
Excerpt: as §2

MYLK2 = molecular target: T28, MYLK2 (Homo sapiens, UniProt Q9H1R3); experiment: KINOMEscan at 1 μM, MYLK2; format: binding; conditions: 1000 nM, read-out: Percent Control
T28 construct: purchased Eurofins DiscoverX KINOMEscan
Excerpt: as §2

ACVR2B = molecular target: T29, ACVR2B (Homo sapiens, UniProt Q13705); experiment: KINOMEscan at 1 μM, ACVR2B; format: binding; conditions: 1000 nM, read-out: Percent Control
T29 construct: purchased Eurofins DiscoverX KINOMEscan
Excerpt: as §2

YANK1 = molecular target: T30, YANK1 (Homo sapiens, UniProt Q8WU08); experiment: KINOMEscan at 1 μM, YANK1; format: binding; conditions: 1000 nM, read-out: Percent Control
T30 construct: purchased Eurofins DiscoverX KINOMEscan
Excerpt: as §2

DRAK2 = molecular target: T31, DRAK2 (Homo sapiens, UniProt O94768); experiment: KINOMEscan at 1 μM, DRAK2; format: binding; conditions: 1000 nM, read-out: Percent Control
T31 construct: purchased Eurofins DiscoverX KINOMEscan
Excerpt: as §2

GSK3A = molecular target: T32, GSK3A (Homo sapiens, UniProt P49840); experiment: KINOMEscan binding assay at 1 μM, GSK3A; conditions: Compound Concentration 1000 nM; read-out: Percent Control
T32 construct: purchased Eurofins DiscoverX KINOMEscan
Excerpt: as §2

PIK3CB [6] = molecular target: T3, PIK3CB; experiment: KINOMEscan at 1 μM, PIK3CB; format: binding; conditions: 1000 nM, read-out: Percent Control
Excerpt: as §2

EGFR [7] = molecular target: T12, EGFR; experiment: KINOMEscan at 1 μM, EGFR; format: binding; conditions: 1000 nM, read-out: Percent Control
Excerpt: as §2

T1 sequence (Q15349 1-388 limits assumed): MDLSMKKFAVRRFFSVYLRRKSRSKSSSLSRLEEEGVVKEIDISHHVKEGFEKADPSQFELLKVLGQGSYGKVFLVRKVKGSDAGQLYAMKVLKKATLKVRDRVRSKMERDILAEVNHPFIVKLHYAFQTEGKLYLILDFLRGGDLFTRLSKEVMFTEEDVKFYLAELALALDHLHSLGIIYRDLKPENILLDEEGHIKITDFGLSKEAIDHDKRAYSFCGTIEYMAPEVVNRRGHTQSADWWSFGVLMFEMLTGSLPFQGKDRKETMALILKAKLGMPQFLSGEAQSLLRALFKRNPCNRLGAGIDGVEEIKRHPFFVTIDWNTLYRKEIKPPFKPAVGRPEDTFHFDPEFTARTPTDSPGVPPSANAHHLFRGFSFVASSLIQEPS

Which results are given for Cc1cccc(-c2cnc3occ(-c4ccc(C(=O)O)c(C5CCCC5)c4)c3c2)c1 [SGC-CAMKK2-1 (YL-36)]?
remaining binding at 1 µM [1]: 86%; remaining binding at 1 µM (MAST1): 65%; remaining binding at 1 µM (PIK3CB [2]): 100%; remaining binding at 1 µM (CSNK1G3): 99%; remaining binding at 1 µM (SNRK): 94%; remaining binding at 1 µM (PKNB(M.tuberculosis)): 90%; remaining binding at 1 µM [3]: 100%; remaining binding at 1 µM (NEK3): 100%; remaining binding at 1 µM (CSNK1G2): 88%; remaining binding at 1 µM (EPHA3): 100%; remaining binding at 1 µM [4]: 100%; remaining binding at 1 µM (EGFR [5]): 91%; remaining binding at 1 µM (SIK2): 85%; remaining binding at 1 µM (NEK11): 100%

What does the source list for O=C(O)c1ccc(-c2coc3ncc(-c4ccccc4)cc23)cc1Cl [SGC-CAMKK2-1N (UNC-YL-83)]?
remaining binding at 1 µM (CDC2L2): 100%; remaining binding at 1 µM (IRAK4): 72%; remaining binding at 1 µM (HCK): 100%; remaining binding at 1 µM (PIK4CB): 54%; remaining binding at 1 µM (FLT4): 82%; remaining binding at 1 µM (PDPK1): 100%; remaining binding at 1 µM (LIMK2): 92%; remaining binding at 1 µM (ERN1): 76%; remaining binding at 1 µM (TESK1): 59%; remaining binding at 1 µM (EPHA5): 100%; remaining binding at 1 µM (EGFR(E746-A750del)): 100%; remaining binding at 1 µM (CDKL3): 63%; remaining binding at 1 µM (SIK): 100%; remaining binding at 1 µM (MYLK2): 82%; remaining binding at 1 µM (ACVR2B): 66%; remaining binding at 1 µM (YANK1): 84%; remaining binding at 1 µM (DRAK2): 90%; remaining binding at 1 µM (GSK3A): 100%; remaining binding at 1 µM (PIK3CB [6]): 67%; remaining binding at 1 µM (EGFR [7]): 100%

Reference: article PMC9856672, “SGC-CAMKK2-1: A Chemical Probe for CAMKK2” (Cells, 2023)
